Assay [1] relates to platelet aggregation (PRP; ADP and collagen as triggers). Put plainly: Ex vivo platelet aggregation-inhibiting activity in cynomolgus monkeys. The conditions noted are these: 3 mg/kg via stomach tube, 20 μM ADP and 10 μg/ml collagen, mean ± SEM (n = 3). As to the method: Ex vivo platelet aggregation-inhibiting activity in cynomolgus monkeys:
Cynomolgus monkeys that had been lightly anesthetized by intramuscular administration of ketamine hydrochloride were fixed on a work-bench, and a sample compound of the present invention as dissolved in 2 ml of […] was forcedly administered into its stomach via a stomach tube at a dose of 3 mg/kg. Before the administration and after the administration at a predetermined period of time, 3 ml (containing 1/10 times by volume of sodium citrate) of the blood was collected from the animal through its femoral vein. From the blood was obtained platelet-rich-plasma (PRP) of 300,000/μl, according to the De Marco et al's method (see J. clin. Invest., 77, 1272-1277, 1988). The PRP was adjusted at 3×10^8 /ml with an automatic blood cell counter (MEK-5158 Model, produced by Nihon Koden Co.) before use. Added thereto were 20 μM of ADP and 10 μg/ml of bovine tendon-derived collagen (produced by Niko Bioscience Co.) as triggers, whereby the aggregation of the platelets was caused in the PRP. The degree of the aggregation of the platelets was measured with a platelet aggregation meter (NBS Hematracer 801, produced by Niko Bioscience Co.). The platelet aggregation-inhibiting activity of the tested compound was represented by the inhibition percentage (%) relative to the maximum aggregation percentage of each animal before the addition of the compound thereto.

Another assay has as its target T1, GPIIb/IIIa (Homo sapiens, UniProt P05106+P08514).
T1 construct: GPIIb/IIIa was purified according to a Fitzgerald et al's method; from tissue; host or cells: platelets (human, inferred from the cited Fitzgerald method)
Nature of the assay: Bonding of fibrinogen to pure GPIIb/IIIa. Format: binding. The conditions noted are these: biotinated fibrinogen, 37° C., 3 hours. Here is the method:
Bonding of fibrinogen to pure GPIIb/IIIa: GPIIb/IIIa was purified according to a Fitzgerald et al's method. Fibrinogen was biotinated with NHS-LC-Biotin (manufactured by Pierce Co.). The pure GPIIb/IIIa was added to TBS (20 mM Tris-HCl, pH 7.4, 150 mM NaCl, 1 mM CaCl2, 1 mM MgCl2) at one μg/ml. 100 μl of the resulting solution was put into a 96-well plate (MaxiSorp™, manufactured by Nunc Co.) and left at 4° C. overnight. […] After the solution was removed, a sample compound to be tested and the biotinated fibrinogen were added to the plate and reacted at 37° C. for 3 hours. […] This was washed three times with 300 μl of T-TBS.

Molecules are shown by their SMILES.

For orientation: IC50 means the concentration that inhibits the measured activity by half. Higher therefore signals a need for much substance.

T1 sequence (P08514 32-887 limits assumed): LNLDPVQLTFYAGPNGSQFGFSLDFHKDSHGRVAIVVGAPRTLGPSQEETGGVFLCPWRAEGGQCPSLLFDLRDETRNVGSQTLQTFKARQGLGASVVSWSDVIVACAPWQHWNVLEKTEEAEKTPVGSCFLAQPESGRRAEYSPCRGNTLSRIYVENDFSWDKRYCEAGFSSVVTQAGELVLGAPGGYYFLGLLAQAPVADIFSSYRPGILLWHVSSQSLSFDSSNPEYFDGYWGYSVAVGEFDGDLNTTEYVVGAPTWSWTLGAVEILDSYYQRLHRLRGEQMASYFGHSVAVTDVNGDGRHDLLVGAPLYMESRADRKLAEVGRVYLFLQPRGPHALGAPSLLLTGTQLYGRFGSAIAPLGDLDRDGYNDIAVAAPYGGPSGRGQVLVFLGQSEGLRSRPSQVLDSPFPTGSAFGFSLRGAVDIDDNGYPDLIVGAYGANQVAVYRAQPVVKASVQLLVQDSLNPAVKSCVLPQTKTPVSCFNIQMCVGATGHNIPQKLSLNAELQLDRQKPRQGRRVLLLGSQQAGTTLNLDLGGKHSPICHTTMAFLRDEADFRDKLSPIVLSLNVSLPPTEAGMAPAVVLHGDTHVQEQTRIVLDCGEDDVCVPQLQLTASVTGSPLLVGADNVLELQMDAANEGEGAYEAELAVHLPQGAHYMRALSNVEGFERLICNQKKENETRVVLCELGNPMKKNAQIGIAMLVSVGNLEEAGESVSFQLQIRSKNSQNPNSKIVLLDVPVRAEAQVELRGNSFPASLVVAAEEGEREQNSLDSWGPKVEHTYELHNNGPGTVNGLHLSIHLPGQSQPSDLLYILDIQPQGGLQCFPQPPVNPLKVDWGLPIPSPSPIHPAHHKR
T1 sequence (P08514 891-1039 limits assumed): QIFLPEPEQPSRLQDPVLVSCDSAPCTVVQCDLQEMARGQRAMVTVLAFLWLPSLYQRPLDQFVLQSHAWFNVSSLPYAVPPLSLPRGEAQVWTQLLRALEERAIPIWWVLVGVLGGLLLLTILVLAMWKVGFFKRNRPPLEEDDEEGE
T1 sequence (P05106 27-788): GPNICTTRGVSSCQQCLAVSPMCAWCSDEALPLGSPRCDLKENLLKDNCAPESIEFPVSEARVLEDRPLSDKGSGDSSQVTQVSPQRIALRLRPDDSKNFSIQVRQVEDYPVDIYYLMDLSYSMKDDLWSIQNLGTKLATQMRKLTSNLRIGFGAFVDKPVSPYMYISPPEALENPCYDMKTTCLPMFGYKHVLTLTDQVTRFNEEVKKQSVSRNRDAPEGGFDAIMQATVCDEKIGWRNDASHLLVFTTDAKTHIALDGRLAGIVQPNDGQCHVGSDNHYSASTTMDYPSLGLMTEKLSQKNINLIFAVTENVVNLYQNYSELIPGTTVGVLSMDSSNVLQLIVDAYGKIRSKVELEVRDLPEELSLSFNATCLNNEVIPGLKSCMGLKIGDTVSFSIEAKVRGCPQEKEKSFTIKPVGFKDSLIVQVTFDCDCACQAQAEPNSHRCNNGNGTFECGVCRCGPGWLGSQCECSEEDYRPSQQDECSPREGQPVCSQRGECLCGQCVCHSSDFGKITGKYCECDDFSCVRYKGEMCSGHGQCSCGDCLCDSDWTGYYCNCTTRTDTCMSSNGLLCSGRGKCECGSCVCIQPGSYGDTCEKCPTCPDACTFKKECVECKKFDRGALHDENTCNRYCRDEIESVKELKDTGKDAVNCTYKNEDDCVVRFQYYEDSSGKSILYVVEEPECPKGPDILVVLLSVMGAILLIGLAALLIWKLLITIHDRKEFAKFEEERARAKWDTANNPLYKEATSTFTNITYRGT

As for `Cl.N=C(N)c1ccc(N2CCN(C3CCN(CC(=O)O)CC3CC(=O)O)CC2)cc1` (centres unmarked) [Example 8, 4-[4-(4-Amidinophenyl)-1-piperazinyl]-1,3-piperidinediacetic acid hydrochloride], in assay [1], the “platelet aggregation-inhibition ratio (%), 2 hours after” value is 57 ± 20%; the “platelet aggregation-inhibition ratio (%), 4 hours after” value turned out to be 98 ± 1.0%; the “platelet aggregation-inhibition ratio (%), 6 hours after” value is recorded as 98 ± 1.2%; the “platelet aggregation-inhibition ratio (%), 9 hours after” value came out at 81 ± 19%. Also, in assay [1], the “platelet aggregation-inhibition ratio (%), 12 hours after” value is 100 ± 0% and the “platelet aggregation-inhibition ratio (%), 24 hours after” value was determined as 24 ± 9.1%. The molecule also registered a 50% inhibitory concentration (IC50) against GPIIb/IIIa of 8.4 nM.

In the case of `N=C(N)c1ccc(N2CC(=O)N(C3CCN(CC(=O)O)CC3)CC2=O)cc1` [Example 16, 4-[4-(4-amidinophenyl)-2,5-dioxo-1-piperazinyl]-1-piperidineacetic acid], the IC50 on GPIIb/IIIa is 10.4 nM.

For the molecule `N=C(N)c1ccc(N2CCN(C3CCN(CC(=O)O)CC3)CC2=O)cc1` [Example 18, 4-[4-(4-Amidinophenyl)-3-oxo-1-piperazinyl]-1-piperidineacetic acid], in assay [1], the “platelet aggregation-inhibition ratio (%), 2 hours after” value is 86 ± 8.4%; the “platelet aggregation-inhibition ratio (%), 4 hours after” value was found to be 98 ± 0.9%; the “platelet aggregation-inhibition ratio (%), 6 hours after” value was found to be 75 ± 25%; the “platelet aggregation-inhibition ratio (%), 9 hours after” value is on record as 97 ± 1.7%. In assay [1], the “platelet aggregation-inhibition ratio (%), 12 hours after” value is reported as 99 ± 0.7% and the “platelet aggregation-inhibition ratio (%), 24 hours after” value worked out at 34 ± 11%.

The values are drawn from patent US5773442A, “Benzamidine derivatives and pharmaceutical composition containing them” (Yamanouchi Pharmaceutical Co., Ltd., priority 1995, dated 1998).
